According to publication PMC6738096 (British Journal of Cancer, 2019):
“Also recorded” adds a separate entry of the source.

Experiment: Phase 1 dose-escalation trial: safety and tolerability (TEAEs, SAEs, DLT, MTD, RP2D)
Conditions: for Patients with any AE leading to death: none deemed related to treatment
[1] = safety population, regardless of causality

Experimental: Endpoints included the incidence of DLTs (defined in the ‘Safety' section) in the first 28-day treatment cycle (cycle 1), the frequency and severity of adverse events (AEs) and serious AEs (SAEs) and changes in laboratory values, vital signs, physical examination findings and Eastern Cooperative Oncology Group (ECOG) performance status (PS).
The starting dose was 30 mg, which was determined by review of nonclinical toxicokinetic assessments. A treatment cycle comprised 28 days in the absence of disease progression or unacceptable toxicity. Patients received starting doses ranging from 30 mg once every 24 hours (Q24h) to 480 mg Q24h, and escalation proceeded based on a 3 + 3 design.
The subsequent cohort started at a reduced dosing regimen. Additional dosing schedules were once every 12 hours (Q12h) at 30 and 60 mg and once every 8 hours (Q8h) at 20 and 40 mg.
Toxicities were graded and recorded according to NCI CTCAE version 4.03. Patients were assessed for DLTs during the first 28-day cycle. A DLT was defined as any grade ≥ 3 nonhaematologic toxicity, according to NCI CTCAE version 4.03.

For `CC(C)NC(=O)[C@H]1CC[C@@H](n2c(NC(=O)c3ccc(F)cc3)nc3ccc(CN4CCC(C(C)(C)O)CC4)cc32)CC1` [TSR-011], the “SAE: Bone pain” value (40 mg Q8h (n = 31)) was 0 n (%), the “SAE: Deep-vein thrombosis” value (40 mg Q8h (n = 31)) was 0 n (%) and the “SAE: Dehydration” value (40 mg Q8h (n = 31)) was 0 n (%). The “SAE: Disease progression” value (40 mg Q8h (n = 31)) was 2 (6.5) n (%), the “SAE: Dyspnoea” value (40 mg Q8h (n = 31)) was 0 n (%) and the “SAE: Gastric haemorrhage” value (40 mg Q8h (n = 31)) was 0 n (%). The “SAE: Gastric ulcer helicobacter” value (40 mg Q8h (n = 31)) was 1 (3.2) n (%), the “SAE: Infection” value (40 mg Q8h (n = 31)) was 1 (3.2) n (%) and the “SAE: Lower respiratory tract infection” value (40 mg Q8h (n = 31)) was 1 (3.2) n (%). The “SAE: Mastoiditis” value (40 mg Q8h (n = 31)) was 0 n (%), the “SAE: Mental impairment” value (40 mg Q8h (n = 31)) was 0 n (%) and the “SAE: Metastases to the central nervous system” value (40 mg Q8h (n = 31)) was 1 (3.2) n (%). The “SAE: Pericardial effusion” value (40 mg Q8h (n = 31)) was 1 (3.2) n (%), the “SAE: Pleural effusion” value (40 mg Q8h (n = 31)) was 1 (3.2) n (%) and the “SAE: Pneumonia” value (40 mg Q8h (n = 31)) was 1 (3.2) n (%). For the same compound, the “SAE: Portal vein thrombosis” value (40 mg Q8h (n = 31)) was 0 n (%), the “SAE: Seizure” value (40 mg Q8h (n = 31)) was 1 (3.2) n (%) and the “SAE: Subarachnoid haemorrhage” value (40 mg Q8h (n = 31)) was 1 (3.2) n (%). For the same compound, the “Total number of TEAEs” value (40 mg Q8h (n = 31)) was 167, the “Total number of treatment-emergent SAEs” value (40 mg Q8h (n = 31)) was 16 and the “Patients with any AE leading to death” value (40 mg Q8h (n = 31)) was 2 (6.5) Number (%). The “Grade ≥ 3 pneumonitis or hypoxia” value (40 mg TID) was “no grade ≥ 3 pneumonitis or hypoxia was observed”, the “Grade 3 ECG QTc prolongation within the DLT period” value (320 mg Q24h cohort, an additional patient determined retrospectively) was “One patient” and the DLTs (30-, 60-, 120- and 240-mg IR Q24h cohorts) was “none of the patients experienced DLTs”. For the same compound, the “Maximum tolerated dose (MTD)” value (320- and 480-mg Q24h doses) was “exceeded the maximum tolerated dose; also recorded: exceeded the MTD”, the “Grade 3 QTc prolongation” value (480-mg Q24h cohort) was “two of four patients” and the “Drug-related TEAE: Abnormal dreams” value (All patients (N = 72)) was 2 (2.8) n (%). For the same compound, the “Drug-related TEAE: Anaemia” value (All patients (N = 72)) was 2 (2.8) n (%), the “Drug-related TEAE: Asthenia” value (All patients (N = 72)) was 2 (2.8) n (%) and the “Drug-related TEAE: Constipation” value (All patients (N = 72)) was 5 (6.9) n (%). The “Drug-related TEAE: Decreased appetite” value (All patients (N = 72)) was 4 (5.6) n (%), the “Drug-related TEAE: Diarrhoea” value (All patients (N = 72)) was 3 (4.2) n (%) and the “Drug-related TEAE: Dysaesthesia” value (All patients (N = 72)) was 2 (2.8) n (%). The “Drug-related TEAE: Dysgeusia” value (All patients (N = 72)) was 3 (4.2) n (%), the “Drug-related TEAE: Electrocardiogram QTc prolonged” value (All patients (N = 72)) was 12 (16.7) n (%) and the “Drug-related TEAE: Fatigue” value (All patients (N = 72)) was 4 (5.6) n (%). For the same compound, the “Drug-related TEAE: Headache” value (All patients (N = 72)) was 3 (4.2) n (%), the “Drug-related TEAE: Hot flush” value (All patients (N = 72)) was 2 (2.8) n (%) and the “Drug-related TEAE: Increased transaminases” value (All patients (N = 72)) was 2 (2.8) n (%). For the same compound, the “Drug-related TEAE: Insomnia” value (All patients (N = 72)) was 2 (2.8) n (%), the “Drug-related TEAE: Myalgia” value (All patients (N = 72)) was 2 (2.8) n (%) and the “Drug-related TEAE: Nausea” value (All patients (N = 72)) was 3 (4.2) n (%). The “Drug-related TEAE: Peripheral oedema” value (All patients (N = 72)) was 3 (4.2) n (%), the “Drug-related TEAE: Rash” value (All patients (N = 72)) was 2 (2.8) n (%) and the “Drug-related TEAE: Vomiting” value (All patients (N = 72)) was 4 (5.6) n (%). For the same compound, the “Grade 3 TEAE: Anaemia” value (All patients (N = 72)) was 5 (6.9) n (%), the “Grade 3 TEAE: Ascites” value (All patients (N = 72)) was 2 (2.8) n (%) and the “Grade 3 TEAE: Asthenia” value (All patients (N = 72)) was 3 (4.2) n (%). The “Grade 3 TEAE: Dyspnoea” value (All patients (N = 72)) was 3 (4.2) n (%), the “Grade 3 TEAE: Electrocardiogram QTc prolonged” value (All patients (N = 72)) was 4 (5.6) n (%) and the “Grade 3 TEAE: Fatigue” value (All patients (N = 72)) was 2 (2.8) n (%). The “Grade 3 TEAE: Metastases to the central nervous system” value (All patients (N = 72)) was 2 (2.8) n (%), the “Patients with any TEAE” value (All patients (N = 72)) was 70 (97.2) Number (%) and the “Patients with any TEAE leading to treatment discontinuation” value (All patients (N = 72)) was 11 (15.3) Number (%). For the same compound, the “Patients with any serious TEAE” value (All patients (N = 72)) was 28 (38.9) Number (%), the “Patients with any study drug-related TEAE” value (All patients (N = 72)) was 40 (55.6) Number (%) and the “Patients with ≥ 1 treatment-emergent SAE” value (All patients (N = 72)) was 28 (38.9) n (%). The “SAE class: Blood and lymphatic system disorders” value (All patients (N = 72)) was 2 (2.8) n (%), the “SAE class: Cardiac disorders” value (All patients (N = 72)) was 1 (1.4) n (%) and the “SAE class: Gastrointestinal disorders” value (All patients (N = 72)) was 5 (6.9) n (%). The “SAE class: General disorders and administration-site conditions” value (All patients (N = 72)) was 7 (9.7) n (%), the “SAE class: Hepatobiliary disorders” value (All patients (N = 72)) was 1 (1.4) n (%) and the “SAE class: Infections and infestations” value (All patients (N = 72)) was 5 (6.9) n (%). For the same compound, the “SAE class: Metabolism and nutrition disorders” value (All patients (N = 72)) was 1 (1.4) n (%), the “SAE class: Musculoskeletal and connective tissue disorders” value (All patients (N = 72)) was 1 (1.4) n (%) and the “SAE class: Neoplasms benign, malignant and unspecified (including cysts and polyps)” value (All patients (N = 72)) was 3 (4.2) n (%). The “SAE class: Nervous system disorders” value (All patients (N = 72)) was 8 (11.1) n (%), the “SAE class: Respiratory, thoracic and mediastinal disorders” value (All patients (N = 72)) was 4 (5.6) n (%) and the “SAE class: Vascular disorders” value (All patients (N = 72)) was 1 (1.4) n (%). For the same compound, the “SAE: Abdominal pain” value (All patients (N = 72)) was 1 (1.4) n (%), the “SAE: Anaemia” value (All patients (N = 72)) was 2 (2.8) n (%) and the “SAE: Asthenia” value (All patients (N = 72)) was 1 (1.4) n (%). For the same compound, the “SAE: Basal cell carcinoma” value (All patients (N = 72)) was 1 (1.4) n (%), the “SAE: Bone pain” value (All patients (N = 72)) was 1 (1.4) n (%) and the “SAE: Deep-vein thrombosis” value (All patients (N = 72)) was 1 (1.4) n (%). For the same compound, the “SAE: Dehydration” value (All patients (N = 72)) was 1 (1.4) n (%), the “SAE: Disease progression” value (All patients (N = 72)) was 6 (8.3) n (%) and the “SAE: Dyspnoea” value (All patients (N = 72)) was 3 (4.2) n (%). For the same compound, the “SAE: Gastric haemorrhage” value (All patients (N = 72)) was 1 (1.4) n (%), the “SAE: Gastric ulcer helicobacter” value (All patients (N = 72)) was 1 (1.4) n (%) and the “SAE: Infection” value (All patients (N = 72)) was 1 (1.4) n (%). The “SAE: Lower respiratory tract infection” value (All patients (N = 72)) was 1 (1.4) n (%), the “SAE: Mastoiditis” value (All patients (N = 72)) was 1 (1.4) n (%) and the “SAE: Mental impairment” value (All patients (N = 72)) was 2 (2.8) n (%). The “SAE: Metastases to the central nervous system” value (All patients (N = 72)) was 2 (2.8) n (%), the “SAE: Pericardial effusion” value (All patients (N = 72)) was 1 (1.4) n (%) and the “SAE: Pleural effusion” value (All patients (N = 72)) was 1 (1.4) n (%). The “SAE: Pneumonia” value (All patients (N = 72)) was 1 (1.4) n (%), the “SAE: Portal vein thrombosis” value (All patients (N = 72)) was 1 (1.4) n (%) and the “SAE: Seizure” value (All patients (N = 72)) was 2 (2.8) n (%). The “SAE: Subarachnoid haemorrhage” value (All patients (N = 72)) was 1 (1.4) n (%), the “Total number of TEAEs” value (All patients (N = 72)) was 621 and the “Total number of treatment-emergent SAEs” value (All patients (N = 72)) was 49. For the same compound, the “Patients with any AE leading to death” value (All patients (N = 72)) was 6 (8.3) Number (%), the “Most common grade 3–4 TEAEs, patients” value (RP2D 40 mg Q8h) was 3.2–6.5% and the “Recommended phase 2 dose (RP2D)” value (every 8 hours (Q8h, TID), IR) was 40 mg. For the same compound, the “Grade 3 TEAEs, patients” value (safety population) was 51.4%, the “Grade 4 TEAE of anaemia” value (safety population) was “One patient” and the “SAE disease progression, patients” value (safety population) was 8.3%. For the same compound, the “Study drug-related SAE, patients” value (safety population) was 1.4%, the “Study drug-related TEAEs, patients” value (safety population) was 55.6% and the “TEAEs leading to study drug discontinuation, patients” value (safety population) was 15.3%. For the same compound, the “TEAEs of grade 1 severity” value (safety population) was 64 % of events, the “Treatment-emergent SAEs, patients” value (safety population) was 38.9% and the “Patients with ≥ 1 TEAE” value (safety population (N = 72)) was 97.2%. The “TEAE QTc prolongation, patients” value [1] was 18.1%, the “TEAE anaemia, patients” value [1] was 15.3% and the “TEAE asthenia, patients” value [1] was 15.3%. The “TEAE class gastrointestinal disorders, patients” value [1] was 61.1%, the “TEAE class general disorders and administration-site conditions, patients” value [1] was 50.0% and the “TEAE constipation, patients” value [1] was 19.4%. The “TEAE decreased appetite, patients” value [1] was 15.3%, the “TEAE diarrhoea, patients” value [1] was 18.1% and the “TEAE fatigue, patients” value [1] was 19.4%. For the same compound, the “TEAE headache, patients” value [1] was 15.3% and the “TEAE vomiting, patients” value [1] was 18.1%.
